Legend:
HCT116 cells = assay: Flow cytometry cell cycle analysis of HCT116 cells; format: cell-based; conditions: HCT116, 16 hrs, FIG. 9
Method: In order to test the inhibitory effect of candidate compounds on the transcription of endogenous Wnt/β-cat target genes in HCT116 cells, lysates were prepared from cells that were either treated with candidate small molecules or DMSO control. […] Cell cycle arrest of compound treated HCT116 cells was further confirmed by the reduced number of phosphorylated Histone3 (PH3) positive cells, when cultured in the presence of candidate compounds (FIG. 10).
Flow Cytometry analysis was performed on HCT116 cells treated with candidate compounds for 16 hrs per standard protocols. Briefly, compound treated cells were harvested and washed in 1×PBS followed by fixation in 70% Ethanol at 4° C. for 16 hrs. Cells were then washed in 1×PBS and treated with RNAse at 37° C. for 30′. Following extensive washes in 1×PBS, cellular DNA was stained with 500 ug/ml of Propidium Iodide at room temperature for 10′. Cells were washed again in 1×PBS and analysed by flow cytometry on a FACScalibur machine (Beckson Dickinson) at the NYU flow cytometry core facility.

[1] = tested on: Wnt/wg pathway, Wnt-responsive luciferase reporter dTF12; assay: Wg-responsive dTF12 (TOP12) luciferase reporter assay in Drosophila Clone 8 cells, pathway activated by Axin dsRNA; format: cell-based; conditions: Drosophila melanogaster; luciferase assay method in Drosophila Clone 8 cells
Description: The present inventors employed a novel methodology that integrates a “sensitized” chemical genetic high-throughput screen (HTS) with RNA-interference (RNAi) screening technology in order to identify specific small molecule inhibitors of the Wnt pathway in Drosophila cells. As described herein, Drosophila Clone 8 cell-based assay systems developed by the present inventors to investigate the Wnt/wg pathway [DasGupta et al. Science 308, 826-33 (2005)] were used in a small molecule chemical genetic screen to identify specific inhibitors of the pathway. These cell-based assays, which are described in detail below, utilize a Wnt-responsive luciferase reporter […], the activity of which can be determined using […]. The present inventors used the small-molecule library available from the Institute of Chemistry and Cellular Biology (ICCB-Longwood) at Harvard Medical School, Boston, for the screen. […] The resultant activation of the Wnt signaling pathway is then detected by assessing the activity of the Wnt-responsive luciferase reporter gene in the cell-based assay system. […] Primary Small Molecule Screen for the Wingless Signaling Pathway in Drosophila Clone 8 Cells Set up transfection with Wg-reporter ([…]), Normalization vector (PolIII-RL) and dsRNA against […] specific towards Drosophila Axin and lacks any predicted off-targets). 1. Add 40,000 Drosophila Clone 8 cells (in 40 μL) in 384-well plate (white solid bottom, Corning Costar) using the multidrop. 2. Add 20 μLof Transfection mix in each well of a 384-well plate (Corning Costar) using the multidrop. Incubate at 25° C. for 4 days to ensure complete knockdown of Axin. Add small molecule library (Cybio Robot). Incubate 18 hrs. Assay luminescence from the samples using the “Dual-Glo” luciferase kit (Promega Inc.). Specifically, aspirate supernatant and add 20 μL media+20 μL luciferase buffer using the multidrop. Read Firefly Luciferase activity on the EnVision (Perkin Elmer plate reader). Add 20 μL of Stop&Glo using the multidrop. Read Renilla luciferase activity on the EnVision (Perkin Elmer plate reader). The Wnt signaling pathway was induced by the introduction of dsRNAs specific for Axin into Clone 8 cells comprising the Wg-responsive luciferase reporter-gene ([…]). As described herein, Axin is a scaffold protein that negatively regulates Arm/β-cat by promoting its degradation. Thereafter, a selected set of a small molecule library was added to the Clone 8 cell-based assay system to assess the effect of individual compounds on (Axin dsRNA-mediated) activated CRT by monitoring the activity of the Wg-responsive luciferase reporter-gene ([…]). […] For the purpose of Table 11 below, activity of each compound is determined using the luciferase assay method in Drosophila Clone 8 cells.

[2] = tested on: C57 mg mouse mammary epithelial cell line; assay: C57mg transformation assay (Wnt3a induced); format: cell-based; conditions: 10 ng/μl, 5 days, FIG. 5
Method: The transformation assay was carried out in a 96 well format. C57 mg cells were cultured in DMEM/10% FBS supplemented with purified Wnt3a protein (R&D Systems) to a final concentration of […]. Small molecule compounds dissolved in DMSO were added to a final concentration of 10 ng/μl and 0.01% DMSO. Following incubation at 37° C. for 5 days, cells were fixed with 4% Formaldehyde in 1×PBS at RT for 30 min and washed subsequently with 1×PBS at room temperature (RT) for 5 minutes (×3). Cells were then permeabilized in Blocking buffer (0.1% Triton-X/1×PBS/5% Normal Goat Serum) at RT for 20 min, subsequent to which, cells were incubated with anti-β-cat at RT for 1 hour (diluted to 1:1000 in blocking buffer). Subsequently, cells were washed with 1×PBS at RT for 10 minutes (×3) and then incubated with secondary antibody and Alexa-Fluor 488 conjugated phalloidin in Blocking buffer at RT for 1 hour. Following a brief wash in 1×PBS, cells were imaged in PBS buffer using the Array-Scan imaging system.
Transformation of the cell line is evidenced by pronounced changes in morphology, typified by formation of chord-like bundles of cells or foci-forming colonies that break off and float in the media [Wong et al. supra, 1994]. This Wnt responsive phenotype provides a mammalian assay in which to evaluate the inhibitory effect of the small molecule inhibitors identified in the primary screen. Briefly, cells are cultured in Wnt3a conditioned media in the presence or absence of a small molecule inhibitor and morphological analysis conducted using automated microscopy.
The present inventors have established a phenotypic assay using the Wnt-responsive C57 mg mouse mammary epithelial cell line to ascertain the validity of the inhibitory compounds identified in the primary screen. Specifically, addition of Wnt3a conditioned media or purified Wnt3a protein results in cellular transformation, manifested by a pronounced change from an epithelial-cell like morphology to those resembling spindle shaped cells with chord like bundles. […] The Array-Scan imagining system (Cellomics Inc.) is used to image such phenotypic changes in a 96-well plate format so as to gain a quantitative estimate of the degree of the inhibitory effect of the compounds on Wnt3a induced transformation in C57 mg cells. Quantitative analysis of the transformation phenotype is measured by the degree of actin fiber alignment (defined as anisotropy), which is expressed as the standard deviation (SD) of the angles projected by the actin fibers relative to the normal; low SD numbers reflect an increase in Wnt-responsive transformation. This approach allows for objective inferences on the cellular effects of the candidate inhibitors.

[3] = tested on: Wnt-responsive STF16 luciferase reporter in HEK 293 cells; assay: Wnt-responsive STF16 luciferase reporter assay in HEK 293 cells; format: cell-based, mammalian; conditions: 2.5 ng/μl, Wnt3a conditioned media, FIG. 4
Method: HEK 293 cells were transfected with 50 ng each of the Wnt-responsive STF16 luciferase reporter and pCMV-RL normalization reporter using the Lipofectamine LTX (Invitrogen Inc.) in a 96 well plate format. Cells were cultured in DMEM/10% FBS at 37° C. for 2 days following which, they were induced with Wnt3a conditioned media for 1 day and then treated with small molecule compounds to a final concentration of 2.5 ng/μl for approximately 18 hours. Luciferase reporter activity was then measured using the Dual-Glo system (Promega Inc.) on the Envision Plate Reader. Normalized luciferase activity in response to treatment with candidate small molecule compounds was compared to that obtained from cells treated with DMSO. In order to confirm and corroborate the activity of CRT inhibitor compounds in a mammalian context, the present inventors have tested a subset of the inhibitors identified in the context of established mammalian cell lines. […] Briefly, HEK 293 cells were transfected with pSTF16-LF along with the normalization reporter, pCMV-RL and the effect of the compounds on reporter activity in such cells was determined by quantifying the luminescence from the luciferase reporter gene as described in Dasgupta et al. [supra (2005)].

Row | IC50 [1] [µM] | SMILES | cell cycle effect (HCT116 cells) | inhibition of Wnt3a induced C57 mg transformation [2] | inhibition of Wnt responsive luciferase reporter activity in HEK-293 cells [3]
1 |  | Cc1cc(/C=C2\SC(=O)N(c3ccccc3)C2=O)c(C)n1-c1cccnc1 [Compound C14] | G0/G1 arrest |  | 
2 | 3.51 | CCc1ccc(-c2nc(CSCC(=O)NCc3ccccc3)c(C)o2)cc1 [IIa-66] |  |  | 
3 | 3.06 | COc1cccc(/C=C2\SC(=S)N(CCCC(=O)O)C2=O)c1OC [IIa-143] |  |  | 
4 | 4.76 | O=C(CCCN1C(=O)/C(=C/c2cccs2)SC1=S)Nc1ccc(O)cc1 [IIa-432] |  | significant inhibition | poor inhibitors
5 | 1.58 | CCc1ccc(-c2nc(CSCC(=O)NC3CC3)c(C)o2)cc1 [IIa-719] |  | partial reduction | 
6 | 1260 | Cc1ccc(-c2nc(CSCC(=O)NC3CC3)c(C)o2)cc1 [IIa-722] |  | partial reduction | 
7 | 1.1 | CCc1ccc(-c2nc(CSCC(=O)N3CCc4ccccc43)c(C)o2)cc1 [IIa-2102] |  | partial reduction | 

Row | SMILES | IC50 [1] [µM] | cell cycle effect (HCT116 cells) | inhibition of Wnt3a induced C57 mg transformation [2] | inhibition of Wnt responsive luciferase reporter activity in HEK-293 cells [3]
8 | CCc1ccc(-c2nc(CSCC(=O)NCCc3ccccc3)c(C)o2)cc1 [IIa-333] | 4.18 |  |  | 
